These results are taken from PMC12530843, “Identification of a New Interesting BAG3 Modulator Able to Disrupt Cancer‐Related Pathways” (Chemmedchem, 2025).

In experiment [1] the target is T1, BAG3 full length (Homo sapiens, UniProt O95817).
T1 construct: purchased Novus Biologicals (Littleton, Colorado)
In words: SPR binding on full-length BAG3. The following applies: Biacore T200, 25 °C, 1:1 model; for Kd: read-out: BAG3 FULL KD ± SD. The procedure: (§1) Recombinant human BAG3 protein (Bcl2‐associated athanogene 3) was obtained from Novus Biologicals (Littleton, Colorado), while the BAG3 domain (BAG3‐BD) was sourced from ARETA International S.r.l. (Gerenzano, Italy). We used (Z)‐ethyl 2‐(5‐(3,4‐dihydroxybenzylidene)‐2,4‐dioxothiazolidin‐3‐yl)acetate (LK4), a BAG3 inhibitor previously identified by our group.^[ [13] ^] SPR spectroscopy was performed using a Biacore T200 optical biosensor with CM5 sensor chips (Cytiva, Marlborough, USA) to assess the affinity of synthesized molecules for BAG3 and BAG‐BD. BAG3 and BAG‐BD were immobilized on CM5 sensor chip using standard amine‐coupling protocol.^[ [15] ^, [42] ^, [43] ^] BAG3 protein (0.067 μg μL^−1 in 10 mM CH3COONa, pH 4.5) was immobilized at a flow rate of 10 μL min^−1, achieving a surface density of 14 kRU, while BAG3‐BD (0.38 μg μL^−1 in 10 mM CH3COONa, pH 4.5) reached a density of 4 kRU. For the experiments, BAG3 and BAG‐BD surfaces, as well as an unmodified reference surface, were prepared for simultaneous analysis. Compounds 1–10 and LK4 were initially dissolved to 10 mM in 100% DMSO, then diluted 1:20 (v/v) in PBS‐P buffer (0.2 M phosphate buffer, 27 mM KCl, 1.37 M NaCl, 0.5% surfactant P20) resulting in a final DMSO concentration of 5.0%. The compounds were injected in a concentration series (1:2 dilution, 10 different concentrations) ranging from 0 to 100 μM, using 96‐well plates. SPR experiments were conducted at 25 °C with a flow rate of 20 μL min^−1, featuring a 90 s association phase followed by a 400 s dissociation phase. Changes in mass, recorded as resonance units (RU), were used to quantify binding responses, while K D values were determined using Biaevaluation software by globally fitting the double‐referenced association and dissociation data to a 1:1 interaction model. (See Figure S43–S56, Supporting Information).
On the technique in general: SPR reads the build-up and loss of mass on a sensor chip optically.

Experiment [2] concerns the target T2, BAG3-BD (Homo sapiens, UniProt O95817).
T2 construct: the BAG3 domain (BAG3‐BD) was sourced from ARETA International S.r.l; (Gerenzano, Italy); purchased ARETA International S.r.l
T2 sequence (O95817 421-498 limits assumed): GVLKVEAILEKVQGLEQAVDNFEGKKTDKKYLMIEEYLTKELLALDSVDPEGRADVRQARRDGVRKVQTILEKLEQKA
As to the kind of experiment: SPR binding on BAG3 BAG domain. The following applies: Biacore T200, 25 °C, 1:1 model; for Kd: read-out: BAG3–BD KD ± SD. The procedure:
as §1

In experiment [3] the test system is HeLa cells. The arrangement: method as in PMID 29926854. The following applies: reported value; read-out: IC50 in HeLa cell line; cited from earlier work.

Structures are written as SMILES. Entries after “also recorded” stand apart in the source; their conditions may differ.

T1 sequence (O95817 whole entry): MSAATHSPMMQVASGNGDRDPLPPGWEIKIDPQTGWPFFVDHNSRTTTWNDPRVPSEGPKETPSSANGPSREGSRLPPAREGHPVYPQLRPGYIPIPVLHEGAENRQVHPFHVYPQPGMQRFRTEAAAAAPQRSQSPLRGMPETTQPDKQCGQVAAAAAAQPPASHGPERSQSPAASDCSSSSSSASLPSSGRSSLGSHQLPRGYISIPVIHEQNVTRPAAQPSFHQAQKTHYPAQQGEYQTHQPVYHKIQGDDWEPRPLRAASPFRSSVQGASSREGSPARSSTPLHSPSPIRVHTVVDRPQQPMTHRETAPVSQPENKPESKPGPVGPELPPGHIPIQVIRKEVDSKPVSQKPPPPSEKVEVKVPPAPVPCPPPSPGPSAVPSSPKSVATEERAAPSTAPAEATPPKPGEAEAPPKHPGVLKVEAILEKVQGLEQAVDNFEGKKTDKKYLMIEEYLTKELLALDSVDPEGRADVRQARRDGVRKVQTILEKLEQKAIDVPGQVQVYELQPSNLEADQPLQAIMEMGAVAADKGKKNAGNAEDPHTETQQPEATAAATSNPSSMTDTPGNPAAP

Broadly, the Kd is the equilibrium constant for the complex coming apart. With `O=C(OCc1cn(COCc2ccccc2)nn1)c1cccc([N+](=O)[O-])c1` [Compound 1, (1‐((Benzyloxy)methyl)‐1H‐1,2,3‐triazol‐4‐yl)methyl 3‐nitrobenzoate], in experiment [1], the “BAG3 FULL KD ± SD” value is given as “low micromolar range” and the Kd was found to be 3.31 ± 0.18 µM. For the same compound, in experiment [2], the “BAG3–BD KD ± SD” value was “low micromolar range” and the Kd was found to be 1.87 ± 0.03 µM. Take `O=C(OCc1cn(Cc2cccc3ccccc23)nn1)c1cccc([N+](=O)[O-])c1` [Compound 3, (1‐(Naphthalen‐1‐ylmethyl)‐1H‐1,2,3‐triazol‐4‐yl)methyl 3‐nitrobenzoate]: the “BAG3 FULL KD ± SD” value in experiment [1] was “not able to bind; also recorded: No binding”. In addition, in experiment [2], the “BAG3–BD KD ± SD” value is “not able to bind”. The matching figures for `Cc1cc(C)n(-c2cccc(Cn3cc(COC(=O)c4cccc([N+](=O)[O-])c4)nn3)c2)n1` [Compound 4, (1‐(3‐(3,5‐Dimethyl‐1H‐pyrazol‐1‐yl)benzyl)‐1H‐1,2,3‐triazol‐4‐yl)methyl 3‐nitrobenzoate]: “not able to bind; also recorded: No binding” and “not able to bind”. As for `O=C(OCc1cn(Cc2ccc3ccccc3n2)nn1)c1cccc([N+](=O)[O-])c1` [Compound 5, (1‐(Quinolin‐2‐ylmethyl)‐1H‐1,2,3‐triazol‐4‐yl)methyl 3‐nitrobenzoate], the figures for the Kd in experiment [1] and in experiment [2] were 12.5 ± 2.26 µM and 8.27 ± 0.98 µM, respectively. In the case of `O=C(OCc1cn(Cc2ccc3ccccc3n2)nn1)c1ccnc(Cl)c1` [Compound 6, (1‐(Quinolin‐2‐ylmethyl)‐1H‐1,2,3‐triazol‐4‐yl)methyl 2‐chloroisonicotinate], the results for the Kd in experiment [1] and in experiment [2] were 24 ± 4.6 µM and 2.78 ± 0.88 µM, respectively.

In the case of `Nc1ccc(C(=O)OCc2cn(Cc3ccc4ccccc4n3)nn2)cc1Br` [Compound 7, (1‐(Quinolin‐2‐ylmethyl)‐1H‐1,2,3‐triazol‐4‐yl)methyl 4‐amino‐3‐bromobenzoate], the Kd in experiment [1] is 11.4 ± 2.43 µM; in experiment [2], 6.32 ± 0.12 µM. On to `O=C(OCc1cn(Cc2ccc3ccccc3n2)nn1)c1ccccc1I` [Compound 8, (1‐(Quinolin‐2‐ylmethyl)‐1H‐1,2,3‐triazol‐4‐yl)methyl 2‐iodobenzoate], for which the Kd in experiment [1] turned out to be 12.6 ± 1.2 µM; in experiment [2], 2.43 ± 0.09 µM.

As for `Cc1cc(C)n(-c2cccc(Cn3cc(COC(=O)c4ccc(N)c(Br)c4)nn3)c2)n1` [Compound 9, (1‐(3‐(3,5‐Dimethyl‐1H‐pyrazol‐1‐yl)benzyl)‐1H‐1,2,3‐triazol‐4‐yl)methyl 4‐amino‐3‐bromobenzoate], the “BAG3 FULL KD ± SD” value in experiment [1] is on record as “did not show the ability to bind; also recorded: No binding”. As to `Nc1ccc(C(=O)OCc2cn(Cc3cccc4ccccc34)nn2)cc1Br` [Compound 10, (1‐(Naphthalen‐1‐ylmethyl)‐1H‐1,2,3‐triazol‐4‐yl)methyl 4‐amino‐3‐bromobenzoate], the “BAG3 FULL KD ± SD” value in experiment [1] was “did not show a satisfactory binding; also recorded: No binding”.

As usually defined, the IC50 is the concentration that inhibits the measured activity by half. Take `CCOC(=O)CN1C(=O)S/C(=C\c2ccc(O)c(O)c2)C1=O` [LK4, (Z)‐ethyl 2‐(5‐(3,4‐dihydroxybenzylidene)‐2,4‐dioxothiazolidin‐3‐yl)acetate]: the IC50 in experiment [3] is above 50 µM.
